# Tests used:
# NCI/ADR-RES cells = experiment: Colony formation assay; type: cell-based, human; details: 24 h treatment; low concentration
# Protocol: Colony formation assay. Colony formation assay is an in vitro cell survival assay based on the ability of a single cell to grow into a colony. This technique was also performed to confirm the activity. Briefly, cells were plated in 96-well plates at a density of 300 cells/well and allowed to attach overnight. The next day, the corresponding compounds were added and allowed to incubate for 24 h. After exposure, cells were changed the new media and cultured until colonies were formed (7-10 days). Cells were subsequently washed and stained with a solution of crystal violet for 30 min. After staining, cells were thoroughly washed with water. Colonies were imaged on the inverted fluorescence microscope and were counted using ImageJ software.
# Panc1 = experiment: MTT assay (cytotoxicity), Panc1; type: cell-based; details: Homo sapiens, PANC-1, 72 h, drug concentration causing a 50% decrease in cell population
# Protocol: (§1) The evaluation of cytotoxicity was based on the reduction of MTT dye by viable cells to give purple formazan products, which can be measured spectrophotometrically at 540 nm. One hundred eighty microliters of cancer cells were seeded into 96-well plates at 3,500-4,000 cells/well and incubated at 37° C. overnight before the indicated treatments. After 72 h, 20 μl of MTT solution (3 mg/ml) was added and incubated again for 3 h. After removal of media and solubilization of formazan crystals in 150 μL of DMSO, the absorbance was measured at 570 nm. Percentage of cell growth inhibition was expressed as 1-[(A−B)/(C−B)]×100% (A, B and C were the absorbance values from experimental, blank and control cells, respectively).
# (§2) KJA derivatives were tested by the MTT assay against five human cancer cell lines including ovarian cancer cell lines (OVCAR-8, NCI/ADR-RES and SKOV3) and pancreatic cancer cell lines (MIA PaCa-2 and Pac-1). […] It is important to note that the NCI/ADR-RES cell line shares a large number of karyotypic abnormalities with OVCAR-8 but expresses high levels of MDR1 (multidrug resistance protein 1)/P-glycoprotein (see, e.g., Xu, S.; et al., Proceedings of the National Academy of Sciences 2012, 109, 16348-16353), resulting in resistance to multiple anticancer drugs in clinical use, including paclitaxel and doxorubicin.
# NCI/ADR-RES cell line = experiment: Bru-seq, changes in transcription; type: cell-based, human
# From the text: Furthermore, to better understand the potential mechanism of KJA03, we performed Bru-seq to examine the global changes in transcription in NCI/ADR-RES cells.
# SKOV3 = experiment: MTT assay (cytotoxicity), SKOV3; type: cell-based; details: Homo sapiens, SK-OV-3, 72 h, drug concentration causing a 50% decrease in cell population
# Protocol: as §1, §2
# tumor = experiment: Tumor size, body weight and gross toxicity in treated mice; type: in vivo
# From the text: Error bars indicate Mean±SEM. and *p<0.05.
# [1] = tested on: five human cancer cell lines (OVCAR-8, NCI/ADR-RES, SKOV3, MIA PaCa-2, Pac-1); experiment: MTT assay, panel of five human cancer cell lines; type: cell-based; details: span over the five cell lines, read-out: IC50 against five cancer cell lines
# Protocol: as §1, §2
compound,measurement,setting,value
"Cc1ccc(-c2noc(-c3ccccc3-n3c(-c4ccc(C)cc4)noc3=O)n2)cc1 [KJA03, 3-(P-tolyl)-4-(2-(3-(p-tolyl)-1,2,4-oxadiazol-5-yl)phenyl)-1,2,4-oxadiazol-5(4H)-one]",colony formation in NCI/ADR-RES,NCI/ADR-RES cells,significantly inhibited colony formation
same,IC50,Panc1,170 nM
same,"expression of LAMC2, TAGLN, CSRP1, SLC4A4, LAMB3, and LPP genes",NCI/ADR-RES cell line,significantly increase
same,Fold-Change ACTC1,"NCI/ADR-RES cell line; NCI/ADR-RES, 0.4 uM, 4 hours",2.238 fold
same,Fold-Change APOBEC3,"NCI/ADR-RES cell line; NCI/ADR-RES, 0.4 uM, 4 hours",0.309 fold
same,Fold-Change ARMCX1,"NCI/ADR-RES cell line; NCI/ADR-RES, 0.4 uM, 4 hours",0.417 fold
same,Fold-Change ATP5I,"NCI/ADR-RES cell line; NCI/ADR-RES, 0.4 uM, 4 hours",0.496 fold
same,Fold-Change AURKAIP1,"NCI/ADR-RES cell line; NCI/ADR-RES, 0.4 uM, 4 hours",0.413 fold
same,Fold-Change BHLHE40,"NCI/ADR-RES cell line; NCI/ADR-RES, 0.4 uM, 4 hours",2.683 fold
same,Fold-Change C19orf33,"NCI/ADR-RES cell line; NCI/ADR-RES, 0.4 uM, 4 hours",0.378 fold
same,Fold-Change CNO,"NCI/ADR-RES cell line; NCI/ADR-RES, 0.4 uM, 4 hours",0.395 fold
same,Fold-Change CSRP1,"NCI/ADR-RES cell line; NCI/ADR-RES, 0.4 uM, 4 hours",2.335 fold
same,Fold-Change EGR1,"NCI/ADR-RES cell line; NCI/ADR-RES, 0.4 uM, 4 hours",0.198 fold
same,Fold-Change EXOSC4,"NCI/ADR-RES cell line; NCI/ADR-RES, 0.4 uM, 4 hours",0.493 fold
same,Fold-Change FJX1,"NCI/ADR-RES cell line; NCI/ADR-RES, 0.4 uM, 4 hours",0.469 fold
same,Fold-Change GALNT4,"NCI/ADR-RES cell line; NCI/ADR-RES, 0.4 uM, 4 hours",0.356 fold
same,Fold-Change GLIPR1,"NCI/ADR-RES cell line; NCI/ADR-RES, 0.4 uM, 4 hours",2.574 fold
same,Fold-Change HIST1H2A1,"NCI/ADR-RES cell line; NCI/ADR-RES, 0.4 uM, 4 hours",0.483 fold
same,Fold-Change HIST1H2AB,"NCI/ADR-RES cell line; NCI/ADR-RES, 0.4 uM, 4 hours",0.362 fold
same,Fold-Change HIST1H2AE,"NCI/ADR-RES cell line; NCI/ADR-RES, 0.4 uM, 4 hours",0.471 fold
same,Fold-Change HIST1H2AG,"NCI/ADR-RES cell line; NCI/ADR-RES, 0.4 uM, 4 hours",0.45 fold
same,Fold-Change HIST1H2BL,"NCI/ADR-RES cell line; NCI/ADR-RES, 0.4 uM, 4 hours",0.441 fold
same,Fold-Change HIST1H2BM,"NCI/ADR-RES cell line; NCI/ADR-RES, 0.4 uM, 4 hours",0.193 fold
same,Fold-Change HIST1H2BN,"NCI/ADR-RES cell line; NCI/ADR-RES, 0.4 uM, 4 hours",0.378 fold
same,Fold-Change HIST1H3B,"NCI/ADR-RES cell line; NCI/ADR-RES, 0.4 uM, 4 hours",0.432 fold
same,Fold-Change HIST1H3F,"NCI/ADR-RES cell line; NCI/ADR-RES, 0.4 uM, 4 hours",0.322 fold
same,Fold-Change HIST1H3G,"NCI/ADR-RES cell line; NCI/ADR-RES, 0.4 uM, 4 hours",0.496 fold
same,Fold-Change HIST1H3H,"NCI/ADR-RES cell line; NCI/ADR-RES, 0.4 uM, 4 hours",0.136 fold
same,Fold-Change HIST1H4C,"NCI/ADR-RES cell line; NCI/ADR-RES, 0.4 uM, 4 hours",0.338 fold
same,Fold-Change HIST1H4H,"NCI/ADR-RES cell line; NCI/ADR-RES, 0.4 uM, 4 hours",0.324 fold
same,Fold-Change HIST1H4L,"NCI/ADR-RES cell line; NCI/ADR-RES, 0.4 uM, 4 hours",0.416 fold
same,Fold-Change HIST2H2AC,"NCI/ADR-RES cell line; NCI/ADR-RES, 0.4 uM, 4 hours",0.29 fold
same,Fold-Change HIST3H2BB,"NCI/ADR-RES cell line; NCI/ADR-RES, 0.4 uM, 4 hours",0.446 fold
same,Fold-Change HIST4H4,"NCI/ADR-RES cell line; NCI/ADR-RES, 0.4 uM, 4 hours",0.483 fold
same,Fold-Change HOXA1,"NCI/ADR-RES cell line; NCI/ADR-RES, 0.4 uM, 4 hours",0.491 fold
same,Fold-Change HOXC,"NCI/ADR-RES cell line; NCI/ADR-RES, 0.4 uM, 4 hours",0.477 fold
same,Fold-Change HOXC4,"NCI/ADR-RES cell line; NCI/ADR-RES, 0.4 uM, 4 hours",0.4 fold
same,Fold-Change HSD17B10,"NCI/ADR-RES cell line; NCI/ADR-RES, 0.4 uM, 4 hours",0.415 fold
same,Fold-Change ILE,"NCI/ADR-RES cell line; NCI/ADR-RES, 0.4 uM, 4 hours",2.485 fold
same,Fold-Change INGX,"NCI/ADR-RES cell line; NCI/ADR-RES, 0.4 uM, 4 hours",3.089 fold
same,Fold-Change LAMB3,"NCI/ADR-RES cell line; NCI/ADR-RES, 0.4 uM, 4 hours",2.089 fold
same,Fold-Change LAMC2,"NCI/ADR-RES cell line; NCI/ADR-RES, 0.4 uM, 4 hours",3.217 fold
same,Fold-Change LINC00312,"NCI/ADR-RES cell line; NCI/ADR-RES, 0.4 uM, 4 hours",2.165 fold
same,Fold-Change LINC00493,"NCI/ADR-RES cell line; NCI/ADR-RES, 0.4 uM, 4 hours",0.452 fold
same,Fold-Change LOC100630918,"NCI/ADR-RES cell line; NCI/ADR-RES, 0.4 uM, 4 hours",0.494 fold
same,Fold-Change LPP,"NCI/ADR-RES cell line; NCI/ADR-RES, 0.4 uM, 4 hours",2.032 fold
same,Fold-Change LSMD1,"NCI/ADR-RES cell line; NCI/ADR-RES, 0.4 uM, 4 hours",2.261 fold
same,Fold-Change MRPL34,"NCI/ADR-RES cell line; NCI/ADR-RES, 0.4 uM, 4 hours",0.416 fold
same,Fold-Change MRPL41,"NCI/ADR-RES cell line; NCI/ADR-RES, 0.4 uM, 4 hours",0.496 fold
same,Fold-Change MRPS26,"NCI/ADR-RES cell line; NCI/ADR-RES, 0.4 uM, 4 hours",0.432 fold
same,Fold-Change MYADM,"NCI/ADR-RES cell line; NCI/ADR-RES, 0.4 uM, 4 hours",2.114 fold
same,Fold-Change PA2G4P4,"NCI/ADR-RES cell line; NCI/ADR-RES, 0.4 uM, 4 hours",0.463 fold
same,Fold-Change RPL23AP32,"NCI/ADR-RES cell line; NCI/ADR-RES, 0.4 uM, 4 hours",2.141 fold
same,Fold-Change RPS19BP1,"NCI/ADR-RES cell line; NCI/ADR-RES, 0.4 uM, 4 hours",0.49 fold
same,Fold-Change SCARNA2,"NCI/ADR-RES cell line; NCI/ADR-RES, 0.4 uM, 4 hours",0.401 fold
same,Fold-Change SCARNA10,"NCI/ADR-RES cell line; NCI/ADR-RES, 0.4 uM, 4 hours",0.487 fold
same,Fold-Change SCARNA17,"NCI/ADR-RES cell line; NCI/ADR-RES, 0.4 uM, 4 hours",0.496 fold
same,Fold-Change SDPR,"NCI/ADR-RES cell line; NCI/ADR-RES, 0.4 uM, 4 hours",0.497 fold
same,Fold-Change SFTA1P,"NCI/ADR-RES cell line; NCI/ADR-RES, 0.4 uM, 4 hours",0.387 fold
same,Fold-Change SLC4A4,"NCI/ADR-RES cell line; NCI/ADR-RES, 0.4 uM, 4 hours",2.18 fold
same,Fold-Change SNRNP25,"NCI/ADR-RES cell line; NCI/ADR-RES, 0.4 uM, 4 hours",0.463 fold
same,Fold-Change SSSCA1,"NCI/ADR-RES cell line; NCI/ADR-RES, 0.4 uM, 4 hours",0.386 fold
same,Fold-Change TAGLN,"NCI/ADR-RES cell line; NCI/ADR-RES, 0.4 uM, 4 hours",2.648 fold
same,Fold-Change TCEAL1,"NCI/ADR-RES cell line; NCI/ADR-RES, 0.4 uM, 4 hours",0.455 fold
same,Fold-Change TMEM133,"NCI/ADR-RES cell line; NCI/ADR-RES, 0.4 uM, 4 hours",2.846 fold
same,Fold-Change TNFAIP3,"NCI/ADR-RES cell line; NCI/ADR-RES, 0.4 uM, 4 hours",2.192 fold
same,Fold-Change TPBG,"NCI/ADR-RES cell line; NCI/ADR-RES, 0.4 uM, 4 hours",0.374 fold
same,Fold-Change TUBB2B,"NCI/ADR-RES cell line; NCI/ADR-RES, 0.4 uM, 4 hours",0.461 fold
same,Fold-Change TWIST1,"NCI/ADR-RES cell line; NCI/ADR-RES, 0.4 uM, 4 hours",0.319 fold
same,Fold-Change TXNIP,"NCI/ADR-RES cell line; NCI/ADR-RES, 0.4 uM, 4 hours",0.281 fold
same,IC50,SKOV3,310 ± 160 nM
same,tumor sizes,"tumor; mice, 10 mg/kg, *p<0.05",tumor sizes were reduced
same,"gross toxicity such as weakness, weight loss or lethargy","tumor; mouse, in vivo",no symptoms of gross toxicity
same,IC50,[1],130 to 310 nM
